Source: ChEMBL document CHEMBL3297655, “Beyond affinity: enthalpy-entropy factorization unravels complexity of a flat structure-activity relationship for inhibition of a tRNA-modifying enzyme” (J Med Chem, 2014)

Assays:
[1] = Inhibition of tRNA-guanine transglycosylase (unknown origin) assessed as Gibbs free enthalpy at 25 degC at 200 to 300 uM by isothermal titration calorimetry
[2] = Inhibition of tRNA-guanine transglycosylase (unknown origin) assessed as buffer-corrected enthalpy values at 25 degC at 200 to 300 uM by isothermal titration calorimetry
[3] = Inhibition of tRNA-guanine transglycosylase (unknown origin) assessed as entropy at 25 degC at 200 to 300 uM by isothermal titration calorimetry

For `O=c1[nH]cnc2cc3nc(NCCN4CCOCC4)[nH]c3cc12`, the deltaG [1] was -8.77 kcal/mol, the deltaH [2] was -11.7 kcal/mol and the -TdeltaS [3] was 2.92 kcal/mol.

With `CNc1nc2cc3c(=O)[nH]c(N)nc3cc2[nH]1` the deltaG [1] was -9.94 kcal/mol, the deltaH [2] was -23.3 kcal/mol and the -TdeltaS [3] was 13.3 kcal/mol.

Compound `Nc1nc2cc3[nH]c(NCCN4CCCCC4)nc3cc2c(=O)[nH]1` has a deltaG [1] of -10.2 kcal/mol, a deltaH [2] of -18.9 kcal/mol and a -TdeltaS [3] of 8.68 kcal/mol.

Work on `Nc1nc2cc3nc(NCc4cccs4)[nH]c3cc2c(=O)[nH]1` yielded a deltaG [1] of -9.49 kcal/mol, a deltaH [2] of -15.8 kcal/mol and a -TdeltaS [3] of 6.36 kcal/mol.

Work on `O=c1[nH]cnc2cc3[nH]c(NCCN4CCCCC4)nc3cc12` yielded a deltaG [1] of -8.72 kcal/mol, a deltaH [2] of -12.1 kcal/mol and a -TdeltaS [3] of 3.37 kcal/mol.

Compound `O=c1[nH]cnc2cc3nc(NCc4cccs4)[nH]c3cc12` has a deltaG [1] of -7.89 kcal/mol, a deltaH [2] of -10.1 kcal/mol and a -TdeltaS [3] of 2.17 kcal/mol.

Work on `Nc1nc2cc3[nH]c(NCCN4CCOCC4)nc3cc2c(=O)[nH]1` yielded a deltaG [1] of -10.2 kcal/mol, a deltaH [2] of -23 kcal/mol and a -TdeltaS [3] of 12.9 kcal/mol.

Compound `CNc1nc2cc3c(=O)[nH]cnc3cc2[nH]1` has a deltaG [1] of -8.72 kcal/mol, a deltaH [2] of -11.4 kcal/mol and a -TdeltaS [3] of 2.68 kcal/mol.
